Article PMC3929086, “Targeted manipulation of the sortilin–progranulin axis rescues progranulin haploinsufficiency” (Human Molecular Genetics, 2013)
Entries after “also recorded” stand apart in the source; their conditions may differ. Values belong to the molecule of their own block, whether it stands above or below them.

What was measured:
PGRN-SORT1 interaction = assay: PGRN-SORT1 co-immunoprecipitation; assay type: biochemical, human; settings: HEK293 lysate with Flag-SORT1, 100 nM rPGRN, peptide at 10 M (sic; method 20 μM), densitometry
Protocol: HEK293T cells were transfected empty vector or pCMV-SORT1-Flag vector for 48 h. Then, cells were lysed by using Co-IP buffer. Pre-incubation was performed with 300 μg of lysate protein mixed with 20 μM NTS, human PGRN(588–593) peptide or mouse PGRN(584–589) peptide for 1 h. Then, rPGRN (100 nM) was added into the protein G beads pre-cleared supernatant and mixed for 30 min. Next, anti-Flag M2 agarose (Sigma) was added and mixed for another 4 h. The agarose was collected by centrifugation at 1000 g for 3 min and washed with Co-IP buffer six times. Captured protein was eluted from the beads using loading buffer and analyzed by western blot.

[1] = tested on: SORT1-mediated PGRN endocytosis; assay: Quantitative DyL-rPGRN endocytosis assay in COS-1^SORT1 cells; assay type: cell-based, human; settings: 1 h; for inhibition of full-length PGRN endocytosis: COS-1^SORT1, ligand 10 μM (Fig. 4 legend), added simultaneously with DyL-rPGRN, vs vehicle
Protocol: COS-1 cells seeded on a 96-well black plate 1 day before were transfected with pCMV-SORT1 vector. After 24 h, cells were treated with fluorescence-tagged rPGRN (DyL-rPGRN) pre-labeled by DyLight™ 594 antibody labeling kit (Thermo Scientific). The DyL-rPGRN was diluted in OptiMEM to tested concentrations and incubated with the cells for 1 h for endocytosis. The cells were then washed with cold PBS and then fixed by 4% paraformaldehyde. After washing twice, each well was filled with PBS prior scanning. The total PGRN fluorescent signal from the cells was obtained by a plate reader with 593/618 nm (Ex/Em) settings. The endocytosis signal was normalized by the total nuclei signal obtained by staining with a Hoechst 33342 dye. Baseline endocytosis signal was defined as a signal from medium-only-treated cells, whereas the 100% endocytosis level was set as the signal obtained from cells treated with 50 nM DyL-rPGRN. For testing SORT1 ligands, DyL-rPGRN and the peptide were added simultaneously to the cells. For testing of PGRN binders, the binder was pre-incubated with DyL-rPGRN for 1 h before adding to the cells. For qualitative analysis, images from each well were captured by BD Pathway 855 system using a 20× magnification setting.

SORT1 [2] = assay: PGRN endocytosis in M17 cells overexpressing SORT1; assay type: cell-based; settings: for endocytosis of rPGRN: M17^SORT1 cells, rPGRN 500 ng/ml, 60 min, immunofluorescence
Protocol: M17 cells seeded in 12-well culture plates (western blot) or on glass coverslips in 24-well culture plate (immunofluorescence) were transfected with pEGFP-N1 (Clontech) or pCMV-SORT1 (OriGene) vectors. Next day, the cells were changed into serum-free medium 1 h before addition of rPGRN (500 ng/ml) and treated for 60 min. The cells were then put on ice and washed with cold PBS. For western blot, cells were lysed in cold M-Per protein extraction buffer followed by standard procedures as mentioned. For immunofluorescence analyses, cells were fixed in 4% paraformaldehyde solution followed by PBS washes. The cells were then incubated in blocking buffer (PBS, 5% goat serum, 0.1% saponin) for 1 h at room temperature followed by incubation in primary antibody overnight at 4°C. The cells were incubated with secondary antibodies (1:1000) for 1 h at room temperature. The coverslips were then mounted onto slides and waited overnight before analysis. Image analysis was performed by Zeiss LSM 510 META confocal microscope using 60× magnification setting.

SORT1–PGRN interaction = assay: MSD-based SORT1–PGRN interaction assay; assay type: biochemical, human; settings: 200 nM tagged rPGRN, SORT1-Flag captured on MSD plate
Protocol: M17 cells were transfected with pCMV-SORT1-Flag for 48 h. Then, the cell lysate was harvested by the same method used in the co-immunoprecipitation assay. Expression of SORT1-Flag protein was confirmed by western blot. MSD plate was first coated with the Flag M2 antibody (Sigma). Following an overnight incubation at 4°C, the plate was blocked for 2 h and then washed prior to addition of 5 µg/well of lysate protein containing SORT1-Flag protein. After overnight incubation at 4°C, it was then washed and added with 200 nM of either N-6His- or C-6His-tagged rPGRN pre-incubated with either vehicle, 20 µM or 200 µM of BVFP, for 30 min at room temperature. Then plate was then incubated for 2 h, washed and incubated with a mixture of PCDGF antibody and a SULFO-TAG-labeled anti-rabbit IgG antibody for 2 h. After final wash, the plate was read by the MSD Sector Imager 2400.

neutrophil elastase = assay: Neutrophil elastase digestion of synthetic PGRN peptide, MALDI-MS; assay type: in vitro ADME
Protocol: An enzymatic reaction was set up with 7 μg of custom-synthesized PGRN(584–593) peptide (Mayo peptide synthesis core) and 20 μg of NE in a 25 μl reaction at 37°C. Every 10 min, 4 μl of the mixture was collected and diluted 10 times in a solvent mixture (50% acetonitrile:50% water:0.1% acetic acid) until 1 h had passed. For MALDI-MS analysis, 1 μl of the diluted reaction mixture was dried on a MS gold chip and then layered with a concentrated sinipinic acid matrix on top for crystallization. Afterwards, the samples were analyzed by the Bio-Rad MALDI-MS system.

[3] = tested on: PGRN endocytosis in SORT1^KO-hESCs; assay: DyL-rPGRN endocytosis in SORT1^KO-hESCs; assay type: cell-based, human; settings: SORT1^KO-hESC compared with WT-hESC
Source text: To determine whether BVFP, when bound to PGRN, disrupts full-length PGRN and SORT1 binding, we devised a SORT1-dependent rPGRN precipitation assay utilizing the Meso-Scale Discovery (MSD) system (Supplementary Material, Fig. S4A and B). […] To include a higher-affinity PGRN588–593 motif binder as a positive control, an antibody targeting the motif, PGRN-CT antibody, was made for validating the approach (Fig. 5F). […] First, we found SORT1 was abundantly expressed in the wild-type hESCs (Fig. 5H). Similar to the results from COS-1^SORT1 cells, BVFP and PGRN-CT antibody inhibited endocytosis of DyL-rPGRN by 22 and 39%, respectively, under the same experimental conditions in wild-type hESCs (Fig. 5I left).
COS-1 cells seeded on a 96-well black plate 1 day before were transfected with pCMV-SORT1 vector. After 24 h, cells were treated with fluorescence-tagged rPGRN (DyL-rPGRN) pre-labeled by DyLight™ 594 antibody labeling kit (Thermo Scientific). The DyL-rPGRN was diluted in OptiMEM to tested concentrations and incubated with the cells for 1 h for endocytosis. The cells were then washed with cold PBS and then fixed by 4% paraformaldehyde. After washing twice, each well was filled with PBS prior scanning. The total PGRN fluorescent signal from the cells was obtained by a plate reader with 593/618 nm (Ex/Em) settings. […]

SORT1 [4] = assay: SORT1 protein level in M17 cells (western blot); assay type: cell-based; settings: M17, rPGRN at 50 ng/ml, 1, 2 and 4 hours
Protocol: PGRN, SORT1, GFP, GAPDH and β-actin proteins were analyzed using 10% Tris–glycine polyacrylamide gel by SDS–PAGE. After electrophoresis, proteins on gel were transblotted to PVDF membranes followed by standard immunoblotting protocols.

Molecule: ELYENKPRRPYIL [NTS, neurotensin, reference compound]
inhibition of PGRN–SORT1 co-immunoprecipitation (PGRN-SORT1 interaction): significantly reduced the amount of rPGRN
inhibition of full-length PGRN endocytosis [1]: 90%

rPGRN binding to immobilized SORT1 (SORT1–PGRN interaction): specific binding signal
Molecule: N-rP: human recombinant PGRN with 6-histidine tag on the amino-terminus
endocytosis of tagged rPGRN (SORT1 [2]; M17 cells expressing titrated amounts of SORT1, western blot): dependently endocytosed

Molecule: PGRN574–593 peptide: synthetic PGRN574–593 peptide, molecular weight 2430 Da
cleavage by neutrophil elastase (neutrophil elastase; 7 μg peptide, 20 μg NE, 25 μl, 37°C, sampled every 10 min to 1 h): enzymatically cleaved by recombinant elastase (EL) in a time-dependent manner
cleavage site / residues removed by elastase (neutrophil elastase; product 1806 Da from 2430 Da): between residues Ala-588 and Leu-589; also recorded: last five residues were removed by EL

Molecule: VPRPLL [mouse Pgrn584–589, mouse ortholog peptide of PGRN588–593, -VPRPLL]
inhibition of PGRN–SORT1 co-immunoprecipitation (PGRN-SORT1 interaction): significantly reduced the amount of rPGRN
inhibition of full-length PGRN endocytosis [1]: 73%

Molecule: ALRQLL [human PGRN588–593, custom-synthesized C-terminal peptide of human PGRN, -ALRQLL]
inhibition of PGRN–SORT1 co-immunoprecipitation (PGRN-SORT1 interaction): significantly reduced the amount of rPGRN
inhibition of full-length PGRN endocytosis [1]: 93%

B1: DyL-rPGRN: DyLight™-594 fluorescence-labeled rPGRN (conjugate, UniProt P28799 1-593, looked up)
chain: MWTLVSWVALTAGLVAGTRCPDGQFCPVACCLDPGGASYSCCRPLLDKWPTTLSRHLGGPCQVDAHCSAGHSCIFTVSGTSSCCPFPEAVACGDGHHCCPRGFHCSADGRSCFQRSGNNSVGAIQCPDSQFECPDFSTCCVMVDGSWGCCPMPQASCCEDRVHCCPHGAFCDLVHTRCITPTGTHPLAKKLPAQRTNRAVALSSSVMCPDARSRCPDGSTCCELPSGKYGCCPMPNATCCSDHLHCCPQDTVCDLIQSKCLSKENATTDLLTKLPAHTVGDVKCDMEVSCPDGYTCCRLQSGAWGCCPFTQAVCCEDHIHCCPAGFTCDTQKGTCEQGPHQVPWMEKAPAHLSLPDPQALKRDVPCDNVSSCPSSDTCCQLTSGEWGCCPIPEAVCCSDHQHCCPQGYTCVAEGQCQRGSEIVAGLEKMPARRASLSHPRDIGCDQHTSCPVGQTCCPSLGGSWACCQLPHAVCCEDRQHCCPAGYTCNVKARSCEKEVVSAQPATFLARSPHVGVKDVECGEGHFCHDNQTCCRDNRQGWACCPYRQGVCCADRRHCCPAGFRCAARGTKCLRREAPRWDAPLRDPALRQLL
modifications: full-length DyLight 594 label
notes: DyLight™-594 fluorescence-labeled rPGRN
DyL-rPGRN endocytosis response ([1]; COS-1^SORT1, DyL-rPGRN 0 to 50 nM, 593/618 nm): linear, non-saturated endocytosis response
DyL-rPGRN endocytosis signal [3]: significantly lower signal compared with the WT-hESCs

B2: rPGRN1-588: recombinant carboxyl-terminal-truncated PGRN 1–588 (protein)
chain: TRCPDGQFCPVACCLDPGGASYSCCRPLLDKWPTTLSRHLGGPCQVDAHCSAGHSCIFTVSGTSSCCPFPEAVACGDGHHCCPRGFHCSADGRSCFQRSGNNSVGAIQCPDSQFECPDFSTCCVMVDGSWGCCPMPQASCCEDRVHCCPHGAFCDLVHTRCITPTGTHPLAKKLPAQRTNRAVALSSSVMCPDARSRCPDGSTCCELPSGKYGCCPMPNATCCSDHLHCCPQDTVCDLIQSKCLSKENATTDLLTKLPAHTVGDVKCDMEVSCPDGYTCCRLQSGAWGCCPFTQAVCCEDHIHCCPAGFTCDTQKGTCEQGPHQVPWMEKAPAHLSLPDPQALKRDVPCDNVSSCPSSDTCCQLTSGEWGCCPIPEAVCCSDHQHCCPQGYTCVAEGQCQRGSEIVAGLEKMPARRASLSHPRDIGCDQHTSCPVGQTCCPSLGGSWACCQLPHAVCCEDRQHCCPAGYTCNVKARSCEKEVVSAQPATFLARSPHVGVKDVECGEGHFCHDNQTCCRDNRQGWACCPYRQGVCCADRRHCCPAGFRCAARGTKCLRREAPRWDAPLRDPA
modifications: left off: His6, N-terminal, state not stated
endocytosis of rPGRN (SORT1 [2]): failed to be endocytosed

B3: rPGRN: wild-type human recombinant PGRN protein from stable HEK293 cells (protein)
chain: TRCPDGQFCPVACCLDPGGASYSCCRPLLDKWPTTLSRHLGGPCQVDAHCSAGHSCIFTVSGTSSCCPFPEAVACGDGHHCCPRGFHCSADGRSCFQRSGNNSVGAIQCPDSQFECPDFSTCCVMVDGSWGCCPMPQASCCEDRVHCCPHGAFCDLVHTRCITPTGTHPLAKKLPAQRTNRAVALSSSVMCPDARSRCPDGSTCCELPSGKYGCCPMPNATCCSDHLHCCPQDTVCDLIQSKCLSKENATTDLLTKLPAHTVGDVKCDMEVSCPDGYTCCRLQSGAWGCCPFTQAVCCEDHIHCCPAGFTCDTQKGTCEQGPHQVPWMEKAPAHLSLPDPQALKRDVPCDNVSSCPSSDTCCQLTSGEWGCCPIPEAVCCSDHQHCCPQGYTCVAEGQCQRGSEIVAGLEKMPARRASLSHPRDIGCDQHTSCPVGQTCCPSLGGSWACCQLPHAVCCEDRQHCCPAGYTCNVKARSCEKEVVSAQPATFLARSPHVGVKDVECGEGHFCHDNQTCCRDNRQGWACCPYRQGVCCADRRHCCPAGFRCAARGTKCLRREAPRWDAPLRDPALRQLL
modifications: left off: His6, N-terminal, state not stated
endocytosis of rPGRN (SORT1 [2]): significantly endocytosed
subcellular localization after endocytosis (SORT1 [2]; M17 cells overexpressing SORT1): endolysosomal localization
SORT1 level after rPGRN treatment (SORT1 [4]): No significant changes in SORT1
